US20240424111A1, “Degrader Compounds and Uses Thereof” (CALICO LIFE SCIENCES LLC, priority 2021, published 2024)

What was measured:
PTPN2 [1] = molecular target: T1, PTPN2 (Homo sapiens, UniProt P17706); test: HiBiT PTPN2 degradation in 293T.109 (HiBiT-PTPN2) cells, 24 hours; type: cell-based; settings: 293T.109 cells
T1 construct: expressed in transfected cells; host or cells: 293T.109 (HiBiT-PTPN2), derived from 293T WT (ATCC)
T1 sequence (P17706 1-415): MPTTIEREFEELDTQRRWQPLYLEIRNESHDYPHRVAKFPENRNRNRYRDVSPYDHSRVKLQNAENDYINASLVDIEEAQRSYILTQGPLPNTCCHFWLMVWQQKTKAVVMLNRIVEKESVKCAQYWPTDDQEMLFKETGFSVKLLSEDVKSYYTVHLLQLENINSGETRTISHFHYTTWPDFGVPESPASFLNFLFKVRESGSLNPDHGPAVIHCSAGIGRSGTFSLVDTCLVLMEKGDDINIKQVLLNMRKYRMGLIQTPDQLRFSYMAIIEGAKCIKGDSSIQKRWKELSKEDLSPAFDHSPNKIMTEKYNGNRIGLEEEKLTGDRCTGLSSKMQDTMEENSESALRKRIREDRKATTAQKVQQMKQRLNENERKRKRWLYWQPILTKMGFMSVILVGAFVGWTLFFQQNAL
In short: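 293T cells stably expressing N-terminal HiBiT-tagged PTPN2 were treated for 24 h at 37 °C with compound in an 11-point half-log series from 10 μM top concentration, in duplicate. Remaining HiBiT-PTPN2 was measured by lytic luminescence, with untreated cells as the negative control and wells without lytic reagent as the positive control.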

PTPN2 [2] = molecular target: T2, PTPN2 (Mus musculus, UniProt Q06180); test: HiBiT PTPN2 degradation in B16F10.4 cells, 24 hours; type: cell-based
T2 construct: HiBiT; host or cells: B16F10.4
T2 sequence (Q06180 1-406): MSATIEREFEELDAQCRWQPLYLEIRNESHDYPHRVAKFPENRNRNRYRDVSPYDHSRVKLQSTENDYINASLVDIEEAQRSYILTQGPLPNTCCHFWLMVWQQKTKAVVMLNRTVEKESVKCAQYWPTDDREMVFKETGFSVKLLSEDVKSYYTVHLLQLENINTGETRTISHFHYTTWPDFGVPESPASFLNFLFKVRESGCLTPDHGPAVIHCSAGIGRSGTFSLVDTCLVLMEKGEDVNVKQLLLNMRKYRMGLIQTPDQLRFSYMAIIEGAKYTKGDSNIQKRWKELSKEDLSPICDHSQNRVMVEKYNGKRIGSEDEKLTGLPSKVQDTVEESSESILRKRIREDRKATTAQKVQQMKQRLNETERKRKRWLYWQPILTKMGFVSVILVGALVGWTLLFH
In short: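 PTPN2 degradation was measured via luminescence from the Nano-Glo® HiBiT Lytic Assay kit. Compounds were dispensed into 384-well plates at an 11-point half-log titration in duplicate, starting at 10 μM. Cells were added at 5000 per well and held at 37° C. with 5% CO2 for 24 hours. Untreated cells were the negative control and cells without lytic reagent the positive control. Lytic reagents were then added and luminescence read on an EnVision™ Multilabel Reader.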

Compound	DC50 (PTPN2 [1]) [nM]	DC50 (PTPN2 [2]) [nM]
Cn1c(=O)n(C2CCC(=O)NC2=O)c2ccc(C3CCN(CC(=O)Nc4ccc5c(F)c(N6CC(=O)NS6(=O)=O)c(O)cc5c4)CC3=O)cc21 (stereo not drawn) [Degrader 113]	50 to 150	150 to 500
Cn1c(=O)n(C2CCC(=O)NC2=O)c2ccc(N3CCC(O)(CC(=O)N4CC[C@@H](c5ccc6cc(O)c(N7CC(=O)NS7(=O)=O)c(F)c6c5)C4)CC3)cc21 (stereo partly drawn) [Degrader 114]	≥ 500	≥ 500
Cn1c(=O)n(C2CCC(=O)NC2=O)c2ccc(N3CCC(O)(CC(=O)N4CC[C@H](c5ccc6cc(O)c(N7CC(=O)NS7(=O)=O)c(F)c6c5)C4)CC3)cc21 (stereo partly drawn) [Degrader 115]	150 to 500	150 to 500
Cn1c(=O)n(C2CCC(=O)NC2=O)c2ccc(C3CCN(CC(=O)N4CC[C@H](Oc5ccc6cc(O)c(N7CC(=O)NS7(=O)=O)c(F)c6c5)C4)CC3(F)F)cc21 (stereo partly drawn) [Degrader 116]	≥ 500	≥ 500
Cn1c(=O)n(C2CCC(=O)NC2=O)c2ccc(C3CCN(CC(=O)N4CC[C@@H](Oc5ccc6cc(O)c(N7CC(=O)NS7(=O)=O)c(F)c6c5)C4)CC3(F)F)cc21 (stereo partly drawn) [Degrader 117]	≥ 500	≥ 500
Cn1c(=O)n(C2CCC(=O)NC2=O)c2ccc(N3CCC(C(C)(C)C(=O)Nc4ccc5c(F)c(N6CC(=O)NS6(=O)=O)c(O)cc5c4)CC3)cc21 (stereo not drawn) [Degrader 118]	≥ 500	150 to 500
Cn1c(=O)n(C2CCC(=O)NC2=O)c2ccc(N3CCc4cc(CC(=O)Nc5ccc6c(F)c(N7CC(=O)NS7(=O)=O)c(O)cc6c5)ccc43)cc21 (stereo not drawn) [Degrader 119]	150 to 500	50 to 150
Cn1c(=O)n(C2CCC(=O)NC2=O)c2ccc(-n3ccc4cc(CC(=O)Nc5ccc6c(F)c(N7CC(=O)NS7(=O)=O)c(O)cc6c5)ccc43)cc21 (stereo not drawn) [Degrader 120]	150 to 500	50 to 150
C[C@H]1CC(c2ccc3c(c2)n(C)c(=O)n3C2CCC(=O)NC2=O)CCN1CC(=O)Nc1ccc2c(F)c(N3CC(=O)NS3(=O)=O)c(O)cc2c1 (stereo partly drawn) [Degrader 121]	< 50	50 to 150

Other lines, results leading:

DC50 (PTPN2 [1]) [nM]	DC50 (PTPN2 [2]) [nM]	Compound
≥ 500	150 to 500	Cn1c(=O)n(C2CCC(=O)NC2=O)c2cnc(-c3ccc(CC(=O)Nc4ccc5c(F)c(N6CC(=O)NS6(=O)=O)c(O)cc5c4)cc3)cc21 (stereo not drawn) [Degrader 122]
< 50	150 to 500	Cn1c(=O)n(C2CCC(=O)NC2=O)c2ccc([C@@H]3CCN(CC(=O)Nc4ccc5c(F)c(N6CC(=O)NS6(=O)=O)c(O)cc5c4)C3)cc21 (stereo partly drawn) [Degrader 124]
150 to 500	150 to 500	Cn1cc(N2CCC(=O)NC2=O)c2cc(F)c(-c3ccc(CC(=O)Nc4ccc5c(F)c(N6CC(=O)NS6(=O)=O)c(O)cc5c4)cc3)cc21 [Degrader 125]
50 to 150	50 to 150	C[C@H]1CN(c2ccc3c(c2)n(C)c(=O)n3C2CCC(=O)NC2=O)CC[C@H]1CC(=O)Nc1ccc2c(F)c(N3CC(=O)NS3(=O)=O)c(O)cc2c1 (stereo partly drawn) [Degrader 126]
50 to 150	50 to 150	C[C@@H]1CN(c2ccc3c(c2)n(C)c(=O)n3C2CCC(=O)NC2=O)CC[C@@H]1CC(=O)Nc1ccc2c(F)c(N3CC(=O)NS3(=O)=O)c(O)cc2c1 (stereo partly drawn) [Degrader 127]
150 to 500	≥ 500	O=C1CCC(c2ccc(C3CCN(CC(=O)Nc4ccc5c(F)c(N6CC(=O)NS6(=O)=O)c(O)cc5c4)CC3)cc2)C(=O)N1 (stereo not drawn) [Degrader 128]
50 to 150	150 to 500	Cn1nc(N2CCC(=O)NC2=O)c2cc(F)c(N3CCC(CC(=O)Nc4ccc5c(F)c(N6CC(=O)NS6(=O)=O)c(O)cc5c4)CC3)cc21 [Degrader 129]
150 to 500	≥ 500	CCn1c(=O)n(C2CCC(=O)NC2=O)c2ccc([C@@H]3CCN(CC(=O)Nc4ccc5c(F)c(N6CC(=O)NS6(=O)=O)c(O)cc5c4)C[C@H]3F)cc21 (stereo partly drawn) [Degrader 131]
50 to 150	50 to 150	C[C@@H]1CN(c2ccc3c(c2)n(C)c(=O)n3C2CCC(=O)NC2=O)CC[C@H]1CC(=O)Nc1ccc2c(F)c(N3CC(=O)NS3(=O)=O)c(O)cc2c1 (stereo partly drawn) [Degrader 132]
